Measured values published in patent US20130243700A1, “Proteomic Antisense Molecular Shield and Targeting” (priority 2005, published 2013).

Tests used:
type I collagen = type I collagen (Homo sapiens, UniProt P02452+P08123); experiment: platelet adhesion to type I collagen adsorbed to tissue culture plates after incubation with FN or FNPEG-5K; assay type: cell-based; conditions: incubated with the protein and washed
Description: (§1) Since the modified FNPEG-5K retained the collagen binding properties of native FN while lacking its intrinsic platelet activating properties, the ability of this reagent to block platelet adherence to collagen was investigated. To test this, type I collagen was adsorbed to tissue culture plates. Native FN or FNPEG-5K were then incubated with the immobilized collagen and washed. Platelet adhesion was then assessed.

vascular wall components = experiment: platelet adhesion to damaged blood vessels; assay type: cell-based
Description: as §1

[1] = target: plate-immobilized collagen (Homo sapiens, UniProt P02452+P08123); experiment: collagen binding study with iodinated FN and FNPEG-5K; conditions: iodinated protein; compared with native FN
plate-immobilized collagen, sequence (P02452 162-1218 limits assumed): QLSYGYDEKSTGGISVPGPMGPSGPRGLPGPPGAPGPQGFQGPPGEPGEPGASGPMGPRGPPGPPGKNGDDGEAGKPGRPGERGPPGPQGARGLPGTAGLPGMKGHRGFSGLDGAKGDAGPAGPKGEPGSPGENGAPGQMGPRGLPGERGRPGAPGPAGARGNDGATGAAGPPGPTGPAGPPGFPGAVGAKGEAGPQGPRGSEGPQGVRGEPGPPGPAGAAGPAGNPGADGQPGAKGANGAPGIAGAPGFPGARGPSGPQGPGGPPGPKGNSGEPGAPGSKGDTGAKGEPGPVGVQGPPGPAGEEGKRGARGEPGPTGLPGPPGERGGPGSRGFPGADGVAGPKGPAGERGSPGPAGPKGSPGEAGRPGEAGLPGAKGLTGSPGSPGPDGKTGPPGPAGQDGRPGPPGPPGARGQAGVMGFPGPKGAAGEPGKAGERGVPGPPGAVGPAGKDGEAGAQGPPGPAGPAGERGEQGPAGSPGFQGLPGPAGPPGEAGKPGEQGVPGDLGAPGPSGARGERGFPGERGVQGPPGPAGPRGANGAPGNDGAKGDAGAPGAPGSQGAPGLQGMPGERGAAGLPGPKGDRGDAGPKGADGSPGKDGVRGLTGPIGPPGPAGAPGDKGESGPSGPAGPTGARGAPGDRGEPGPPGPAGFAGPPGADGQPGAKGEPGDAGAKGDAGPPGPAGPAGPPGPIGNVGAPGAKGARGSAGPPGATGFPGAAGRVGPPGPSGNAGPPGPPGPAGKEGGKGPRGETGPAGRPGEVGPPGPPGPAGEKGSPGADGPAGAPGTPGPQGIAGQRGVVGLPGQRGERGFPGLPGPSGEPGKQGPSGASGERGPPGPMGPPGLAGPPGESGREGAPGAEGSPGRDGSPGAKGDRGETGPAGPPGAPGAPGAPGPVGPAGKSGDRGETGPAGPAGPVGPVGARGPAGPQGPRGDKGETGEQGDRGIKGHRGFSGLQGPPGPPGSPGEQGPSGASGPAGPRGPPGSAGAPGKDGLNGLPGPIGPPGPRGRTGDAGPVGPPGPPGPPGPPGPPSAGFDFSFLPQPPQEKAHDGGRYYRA
plate-immobilized collagen, sequence (P08123 80-1119 limits assumed): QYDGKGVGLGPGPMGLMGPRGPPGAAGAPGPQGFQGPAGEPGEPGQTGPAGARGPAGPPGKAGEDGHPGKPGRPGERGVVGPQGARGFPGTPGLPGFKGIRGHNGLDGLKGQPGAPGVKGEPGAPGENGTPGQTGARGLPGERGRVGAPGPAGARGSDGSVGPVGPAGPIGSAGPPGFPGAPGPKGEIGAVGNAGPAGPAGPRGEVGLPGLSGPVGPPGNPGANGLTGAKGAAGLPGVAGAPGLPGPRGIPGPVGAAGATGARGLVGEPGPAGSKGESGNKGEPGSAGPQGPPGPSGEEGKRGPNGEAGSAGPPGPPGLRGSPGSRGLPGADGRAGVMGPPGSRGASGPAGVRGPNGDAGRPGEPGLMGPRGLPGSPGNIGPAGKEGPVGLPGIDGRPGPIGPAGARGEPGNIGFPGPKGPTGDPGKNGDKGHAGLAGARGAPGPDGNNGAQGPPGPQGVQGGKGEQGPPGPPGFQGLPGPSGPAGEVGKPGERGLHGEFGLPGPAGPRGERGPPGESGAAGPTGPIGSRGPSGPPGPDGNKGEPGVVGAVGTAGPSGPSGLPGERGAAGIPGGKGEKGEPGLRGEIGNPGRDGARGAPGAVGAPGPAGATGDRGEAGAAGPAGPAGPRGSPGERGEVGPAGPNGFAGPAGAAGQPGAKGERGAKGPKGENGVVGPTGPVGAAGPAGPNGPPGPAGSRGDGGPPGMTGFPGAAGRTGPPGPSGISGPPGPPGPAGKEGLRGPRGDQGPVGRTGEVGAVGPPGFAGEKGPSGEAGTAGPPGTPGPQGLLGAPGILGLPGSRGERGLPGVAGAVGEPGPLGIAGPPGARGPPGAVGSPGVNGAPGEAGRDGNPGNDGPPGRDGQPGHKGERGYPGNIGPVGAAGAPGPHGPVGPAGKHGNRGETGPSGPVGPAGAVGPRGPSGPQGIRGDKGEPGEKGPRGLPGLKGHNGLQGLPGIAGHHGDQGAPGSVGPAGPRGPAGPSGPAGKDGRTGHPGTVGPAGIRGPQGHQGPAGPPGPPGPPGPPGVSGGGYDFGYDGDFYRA
Description: Purified FN was then reabsorbed to gelatin agarose. Sodium cyanoborohydride and mPEG-aldehyde (MW 5,000) were added to the resin-bound FN. […] Following this reaction and subsequent washing away of the reactants, the protein was eluted from the gelatin agarose matrix. Using this reaction sequence, the collagen binding sites within FN were not modified by the pegylation. […] To test whether the modified forms of FN retained the collagen-binding properties of native FN, binding studies using iodinated FN and FNPEG-5K were undertaken. […] Thus, the key collagen-binding properties of FN were not inhibited by this targeted modification approach.

[2] = system: blood vessel wall molecules; experiment: incubation of damaged blood vessels with biotinylated bioconjugate; assay type: binding; conditions: biotinylated form
Description: To further assess the ECM-binding properties FNPEG-5K, damaged blood vessels were incubated with a biotinylated form of bioconjugate.

platelets = experiment: platelet adhesion to FN or FNPEG-5K immobilized on tissue culture plates; assay type: cell-based, human; conditions: protein immobilized onto tissue culture plates; fluorescently labeled platelets
Description: As mentioned previously, FN itself has the ability to mediate adhesion of platelets. To test whether this binding potential was eliminated following mPEG-aldehyde derivatization, FN and FNPEG-5K were immobilized onto tissue culture plates. Fluorescently labeled human […] and adhesion was assessed.

type I collagen, sequence (P02452 162-1218 limits assumed): as the sequence (P02452 162-1218 limits assumed) above
type I collagen, sequence (P08123 80-1119 limits assumed): as the sequence (P08123 80-1119 limits assumed) above

What does the source list for “FNPEG-5K: human plasma fibronectin pegylated on lysine residues with mPEG-aldehyde (MW 5,000) by reductive amination while bound to gelatin agarose”?
inhibition of platelet binding to type I collagen (type I collagen): potently inhibited; blocking of platelet adhesion to vascular wall components (vascular wall components): blocks platelet adhesion to vascular wall components; binding to plate-immobilized collagen [1]: bound plate-immobilized collagen in a manner similar to native FN; coating of blood vessel wall molecules (ECM binding) [2]: coats blood vessel wall molecules; binding to platelets (platelet adhesion to immobilized protein) (platelets): markedly attenuated
